Assay results published in PMC9643456, “Matching amino acids membrane preference profile to improve activity of antimicrobial peptides” (Communications Biology, 2022).
Ends that are not written are not given here.

Experiments:
human red blood cells = experiment: Hemolytic activity; format: cell-based; settings: red cells of human, 18 h
Method in brief: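 Haemolysis was read as A540 of cleared supernatants after 18 h at 37 °C, with 0% and 100% lysis set by peptide-free PBS and 1% Triton X-100 and melittin as positive control. Human RBCs were at 4% final, peptide serially diluted 100–0.78 μM; three replicates.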

MDR E. faecalis = experiment: microbe, parasite or virus in culture; settings: for MIC in 0.2% albumin and 0.01% AcOH added CLSI standard condition, MDR E. faecalis: CAMHB plus 0.2% bovine serum albumin and 0.01% acetic acid, values marked * in Table 2
Method in brief: (§1)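 MIC was read by eye as the lowest peptide concentration leaving no visible turbidity. Peptide and mid-log cells (final 5 × 10^5 CFU/ml) were combined in cation-adjusted Mueller–Hinton broth containing 50 mg/L calcium and 10 mg/L magnesium and incubated 18 h at 37 °C.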

MDR A. baumannii = experiment: microbe, parasite or virus in culture; settings: for MIC in 0.2% albumin and 0.01% AcOH added CLSI standard condition, MDR A. baumannii: CAMHB plus 0.2% bovine serum albumin and 0.01% acetic acid, values marked * in Table 2
Method in brief: as §1

MDR S. aureus = experiment: microbe, parasite or virus in culture; settings: for MIC in 0.2% albumin and 0.01% AcOH added CLSI standard condition, MDR S. aureus: CAMHB plus 0.2% bovine serum albumin and 0.01% acetic acid, values marked * in Table 2
Method in brief: as §1

MDR P. aeruginosa = experiment: microbe, parasite or virus in culture; settings: for MIC in 0.2% albumin and 0.01% AcOH added CLSI standard condition, MDR P. aeruginosa: CAMHB plus 0.2% bovine serum albumin and 0.01% acetic acid, values marked * in Table 2; for Minimum inhibitory concentrations, MDR P. aeruginosa: CLSI broth microdilution, CAMHB with 50 mg/L Ca2+, 10 mg/L Mg2+, 5 × 10^5 CFU/ml, 18 h 37 °C, no visible turbidity, triplicate, strain CCARM 2180
Method in brief: as §1

Substance | Hemolysis percent, 25 μM (human red blood cells) [%] | Hemolysis percent, 50 μM (human red blood cells) [%] | Hemolysis percent, 100 μM (human red blood cells) [%] | MIC in 0.2% albumin and 0.01% AcOH added CLSI standard condition, MDR E. faecalis (MDR E. faecalis) [µM] | MIC in 0.2% albumin and 0.01% AcOH added CLSI standard condition, MDR A. baumannii (MDR A. baumannii) [µM] | MIC in 0.2% albumin and 0.01% AcOH added CLSI standard condition, MDR S. aureus (MDR S. aureus) [µM] | MIC at TM potential condition, S. aureus KCCM 40510 (MDR S. aureus; bacteria OD 0.1 (5 x 10^7 cfu/ml), CAMHB, 1% DMSO) [µM] | MIC in 0.2% albumin and 0.01% AcOH added CLSI standard condition, MDR P. aeruginosa (MDR P. aeruginosa) [µM] | Minimum inhibitory concentrations, MDR P. aeruginosa (MDR P. aeruginosa) [µM] | Minimum inhibitory concentrations, MDR E. faecalis (MDR E. faecalis; CLSI broth microdilution, CAMHB with 50 mg/L Ca2+, 10 mg/L Mg2+, 5 × 10^5 CFU/ml, 18 h 37 °C, triplicate, strain ATCC 51575) [µM] | Minimum inhibitory concentrations, MDR A. baumannii (MDR A. baumannii; CLSI broth microdilution, CAMHB with 50 mg/L Ca2+, 10 mg/L Mg2+, 5 × 10^5 CFU/ml, 18 h 37 °C, triplicate, strain ATCC BAA-1605) [µM] | Minimum inhibitory concentrations, MDR S. aureus (MDR S. aureus; CLSI broth microdilution, CAMHB with 50 mg/L Ca2+, 10 mg/L Mg2+, 5 × 10^5 CFU/ml, 18 h 37 °C, triplicate, strain KCCM 40510) [µM] | Increase of MIC when the S. aureus concentration was increased 200-fold (MDR S. aureus; S. aureus)
RLWWRWIVR-NH2 [HLWCopW29-4] | 1.02 ±0.01 | 1.08 ±0.04 | 2.47 ±0.03 | 20 | 20 | 20 | > 20 | > 20 | > 20 | – | – | – | –
WLVWIWRRR-NH2 [LWCopW29] | 0.84 ±0.06 | 5.15 ±0.15 | 13.65 ±0.74 | 1.25 | 0.31 | 1.25 | – | 20 | > 20 | 5 | 1.25 | 5 | twofold
